Laboratory results: ChEMBL document CHEMBL3286227, “Guanidinium-based derivatives: searching for new kinase inhibitors” (Eur J Med Chem, 2014)
The source made the active and inactive calls. No cut-off for these calls is given here.

What was measured:
HL-60 [1] = test: Cell cycle arrest in human HL60 cells assessed as accumulation at G0/G1 phase at 10 uM after 48 hrs by propidium iodide staining-based flow cytometry (reference value: 57.0 +/- 1.0%); type: functional
HL-60 [2] = test: Cell cycle arrest in human HL60 cells assessed as accumulation at G0/G1 phase at 50 uM after 72 hrs by propidium iodide staining-based flow cytometry (reference value: 65.7 +/- 0.1%); type: functional
HL-60 [3] = test: Cell cycle arrest in human HL60 cells assessed as accumulation at Gn phase at 10 uM after 48 hrs by propidium iodide staining-based flow cytometry (reference value: 2.49 +/- 0.4%); type: functional
HL-60 [4] = test: Cell cycle arrest in human HL60 cells assessed as accumulation at pre-G1 phase at 25 uM after 72 hrs by propidium iodide staining-based flow cytometry (reference value: 0.14%); type: functional
HL-60 [5] = test: Cell cycle arrest in human HL60 cells assessed as accumulation at pre-G1 phase at 10 uM after 48 hrs by propidium iodide staining-based flow cytometry (reference value: 0.17%); type: functional
HL-60 [6] = test: Cell cycle arrest in human HL60 cells assessed as accumulation at G0/G1 phase at 1 uM after 48 hrs by propidium iodide staining-based flow cytometry (reference value: 57.0 +/- 1.0%); type: functional
HL-60 [7] = test: Cell cycle arrest in human HL60 cells assessed as accumulation at G2/M phase at 1 uM after 48 hrs by propidium iodide staining-based flow cytometry (reference value: 18.4 +/- 1.3%); type: functional
HL-60 [8] = test: Cell cycle arrest in human HL60 cells assessed as accumulation at G2/M phase at 50 uM after 48 hrs by propidium iodide staining-based flow cytometry (reference value: 18.4 +/- 1.3%); type: functional
[9] = target: Serine/threonine-protein kinase B-raf (Homo sapiens) (UniProt P15056); test: Competitive binding to B-RAF kinase (unknown origin) at 100 nM to 100 uM after 60 to 120 mins by FRET analysis
Chain of Serine/threonine-protein kinase B-raf (Homo sapiens) (P15056 whole entry): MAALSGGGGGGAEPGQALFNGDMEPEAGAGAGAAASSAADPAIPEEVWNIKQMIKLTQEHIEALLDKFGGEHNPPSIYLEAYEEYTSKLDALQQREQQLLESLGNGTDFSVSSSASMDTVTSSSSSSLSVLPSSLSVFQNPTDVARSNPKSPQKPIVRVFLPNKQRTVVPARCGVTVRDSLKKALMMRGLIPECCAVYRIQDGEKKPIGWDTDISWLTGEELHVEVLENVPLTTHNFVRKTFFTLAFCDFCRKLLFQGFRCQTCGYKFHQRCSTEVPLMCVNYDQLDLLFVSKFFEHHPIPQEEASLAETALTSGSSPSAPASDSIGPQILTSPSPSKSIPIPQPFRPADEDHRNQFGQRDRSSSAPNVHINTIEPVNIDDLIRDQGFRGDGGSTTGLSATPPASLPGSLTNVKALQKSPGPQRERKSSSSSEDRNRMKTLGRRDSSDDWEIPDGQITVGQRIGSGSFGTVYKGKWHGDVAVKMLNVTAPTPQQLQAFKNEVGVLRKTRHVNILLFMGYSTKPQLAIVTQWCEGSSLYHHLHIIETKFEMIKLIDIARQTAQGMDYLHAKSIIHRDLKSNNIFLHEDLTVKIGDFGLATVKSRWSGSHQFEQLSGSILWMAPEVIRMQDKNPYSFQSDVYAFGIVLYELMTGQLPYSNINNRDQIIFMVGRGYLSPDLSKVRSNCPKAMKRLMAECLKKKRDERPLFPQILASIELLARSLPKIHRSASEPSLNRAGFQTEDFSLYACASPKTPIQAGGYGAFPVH

HL-60 [10] = test: Cell cycle arrest in human HL60 cells assessed as accumulation at S phase at 1 uM after 48 hrs by propidium iodide staining-based flow cytometry (reference value: 21.5 +/- 1.0%); type: functional
HL-60 [11] = test: Cell cycle arrest in human HL60 cells assessed as accumulation at pre-G1 phase at 50 uM after 48 hrs by propidium iodide staining-based flow cytometry (reference value: 0.17%); type: functional
HL-60 [12] = test: Cell cycle arrest in human HL60 cells assessed as accumulation at S phase at 25 uM after 72 hrs by propidium iodide staining-based flow cytometry (reference value: 16.4 +/- 0.8%); type: functional
HL-60 [13] = test: Induction of apoptosis in human HL60 cells assessed as cell shrinkage at 50 uM after 72 hrs by microscopy relative to vehicle-treated control; type: functional, cell-based
HL-60 [14] = test: Cell cycle arrest in human HL60 cells assessed as accumulation at G2/M phase at 25 uM after 72 hrs by propidium iodide staining-based flow cytometry (reference value: 14.8 +/- 0.7%); type: functional
HL-60 [15] = test: Cytotoxicity against human HL60 cells after 72 hrs by Alamar Blue assay; type: functional, cell-based; settings: HL-60, 72 h
HL-60 [16] = test: Cell cycle arrest in human HL60 cells assessed as accumulation at Gn phase at 50 uM after 48 hrs by propidium iodide staining-based flow cytometry (reference value: 2.49 +/- 0.4%); type: functional
HL-60 [17] = test: Cell cycle arrest in human HL60 cells assessed as accumulation at G2/M phase at 10 uM after 72 hrs by propidium iodide staining-based flow cytometry (reference value: 14.8 +/- 0.7%); type: functional
HL-60 [18] = test: Cell cycle arrest in human HL60 cells assessed as accumulation at pre-G1 phase at 25 uM after 48 hrs by propidium iodide staining-based flow cytometry (reference value: 0.17%); type: functional
HL-60 [19] = test: Cell cycle arrest in human HL60 cells assessed as accumulation at G0/G1 phase at 25 uM after 72 hrs by propidium iodide staining-based flow cytometry (reference value: 65.7 +/- 0.1%); type: functional
HL-60 [20] = test: Cell cycle arrest in human HL60 cells assessed as accumulation at Gn phase at 25 uM after 72 hrs by propidium iodide staining-based flow cytometry (reference value: 2.49 +/- 0.3%); type: functional
[21] = target: Casein kinase I isoform delta (Homo sapiens, UniProt P48730); test: Inhibition of human recombinant casein kinase-1 delta using casein as substrate after 60 mins by kinase-glo luminescence assay
Chain of Casein kinase I isoform delta (P48730 whole entry, canonical isoform): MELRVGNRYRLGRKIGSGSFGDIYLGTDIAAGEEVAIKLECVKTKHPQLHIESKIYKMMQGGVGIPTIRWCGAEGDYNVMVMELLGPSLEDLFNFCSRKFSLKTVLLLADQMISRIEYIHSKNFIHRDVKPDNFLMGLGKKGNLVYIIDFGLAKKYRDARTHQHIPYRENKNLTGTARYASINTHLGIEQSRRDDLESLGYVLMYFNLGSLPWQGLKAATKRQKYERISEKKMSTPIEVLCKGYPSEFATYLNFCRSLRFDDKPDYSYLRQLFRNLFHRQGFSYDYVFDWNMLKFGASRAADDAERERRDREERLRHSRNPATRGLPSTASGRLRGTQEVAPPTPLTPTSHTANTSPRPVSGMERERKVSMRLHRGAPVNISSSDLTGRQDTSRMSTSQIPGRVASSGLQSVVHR

HL-60 [22] = test: Cell cycle arrest in human HL60 cells assessed as accumulation at G2/M phase at 50 uM after 72 hrs by propidium iodide staining-based flow cytometry (reference value: 14.8 +/- 0.7%); type: functional
HL-60 [23] = test: Cell cycle arrest in human HL60 cells assessed as accumulation at Gn phase at 10 uM after 72 hrs by propidium iodide staining-based flow cytometry (reference value: 2.49 +/- 0.3%); type: functional
HL-60 [24] = test: Cell cycle arrest in human HL60 cells assessed as accumulation at Gn phase at 50 uM after 72 hrs by propidium iodide staining-based flow cytometry (reference value: 2.49 +/- 0.3%); type: functional
HL-60 [25] = test: Cell cycle arrest in human HL60 cells assessed as accumulation at S phase at 10 uM after 72 hrs by propidium iodide staining-based flow cytometry (reference value: 16.4 +/- 0.8%); type: functional
HL-60 [26] = test: Cell cycle arrest in human HL60 cells assessed as accumulation at G2/M phase at 10 uM after 48 hrs by propidium iodide staining-based flow cytometry (reference value: 18.4 +/- 1.3%); type: functional
HL-60 [27] = test: Cell cycle arrest in human HL60 cells assessed as accumulation at G0/G1 phase at 10 uM after 72 hrs by propidium iodide staining-based flow cytometry (reference value: 65.7 +/- 0.1%); type: functional
HL-60 [28] = test: Induction of apoptosis in human HL60 cells assessed as nuclear fragmentation at 50 uM after 72 hrs by microscopy relative to vehicle-treated control; type: functional, cell-based
HL-60 [29] = test: Cell cycle arrest in human HL60 cells assessed as accumulation at pre-G1 phase at 1 uM after 48 hrs by propidium iodide staining-based flow cytometry (reference value: 0.17%); type: functional
HL-60 [30] = test: Cell cycle arrest in human HL60 cells assessed as accumulation at S phase at 50 uM after 48 hrs by propidium iodide staining-based flow cytometry (reference value: 21.5 +/- 1.0%); type: functional
HL-60 [31] = test: Cell cycle arrest in human HL60 cells assessed as accumulation at S phase at 1 uM after 72 hrs by propidium iodide staining-based flow cytometry (reference value: 16.4 +/- 0.8%); type: functional
HL-60 [32] = test: Cell cycle arrest in human HL60 cells assessed as accumulation at Gn phase at 1 uM after 48 hrs by propidium iodide staining-based flow cytometry (reference value: 2.49 +/- 0.4%); type: functional
HL-60 [33] = test: Cell cycle arrest in human HL60 cells assessed as accumulation at S phase at 50 uM after 72 hrs by propidium iodide staining-based flow cytometry (reference value: 16.4 +/- 0.8%); type: functional
HL-60 [34] = test: Cell cycle arrest in human HL60 cells assessed as accumulation at S phase at 25 uM after 48 hrs by propidium iodide staining-based flow cytometry (reference value: 21.5 +/- 1.0%); type: functional
HL-60 [35] = test: Induction of apoptosis in human HL60 cells assessed as cell membrane blebbing at 50 uM after 72 hrs by microscopy relative to vehicle-treated control; type: functional, cell-based

Activity [9]: inactive | IC50 [21]: > 100 µM
Compound: Cl.N=C(N)Nc1ccc(Oc2cccc(NC(=N)Nc3ccc(Cl)c(C(F)(F)F)c3)c2)cc1
Activity (HL-60 [1]): 68.9% | Activity (HL-60 [2]): 43.7% | Activity (HL-60 [3]): 2.17% | Activity (HL-60 [4]): 2.22% | Activity (HL-60 [5]): 0.32% | Activity (HL-60 [6]): 56.6% | Activity (HL-60 [7]): 20.4% | Activity (HL-60 [8]): 18.6% | Activity (HL-60 [10]): 20.6% | Activity (HL-60 [11]): 12.5% | Activity (HL-60 [12]): 4.19% | Activity (HL-60 [13]): Active | Activity (HL-60 [14]): 12.9% | IC50 (HL-60 [15]): 9.72 µM | Activity (HL-60 [16]): 3.14% | Activity (HL-60 [17]): 18.9% | Activity (HL-60 [18]): 1.75% | Activity (HL-60 [19]): 73.4% | Activity (HL-60 [20]): 2.56% | Activity (HL-60 [22]): 13.6% | Activity (HL-60 [23]): 3.36% | Activity (HL-60 [24]): 1.75% | Activity (HL-60 [25]): 14.1% | Activity (HL-60 [26]): 14.6% | Activity (HL-60 [27]): 61.3% | Activity (HL-60 [28]): Active | Activity (HL-60 [29]): 0.13% | Activity (HL-60 [30]): 15.7% | Activity (HL-60 [31]): 17.1% | Activity (HL-60 [32]): 2.17% | Activity (HL-60 [33]): 14.4% | Activity (HL-60 [34]): 7.15% | Activity (HL-60 [35]): Active
